From paper doi:10.1101/2023.04.09.536153v2, “Reinstating targeted protein degradation with DCAF1 PROTACs in CRBN PROTAC resistant settings” (biorxiv, 2023)
Read-outs that look alike come from different tables or passages of the source. One block for each compound: values may come before it.

Columns and labels:
[1] = target: T1, DCAF1(1073-1399)_E1398S (WDR domain, Avi/His-tagged) (Homo sapiens, UniProt Q9Y4B6, E1398S); test: TR-FRET competition with bodipy ligand; assay type: binding; details: 30 mM phosphate pH 7.4, 140 mM NaCl, 22 °C, no BTK added
T1 construct: WDR (WD40) domain 1073-1399 with E1398S; Avi and His tags (N-terminal Avi, C-terminal His for SPR; C-terminal Avi-His for TR-FRET), biotinylated by BirA; Sf9 cells

[2] = target: T2, BTK kinase domain (389-659) (Homo sapiens, UniProt Q06187); test: kinase inhibition, Caliper mobility shift; assay type: biochemical; details: 0.047 mM ATP, 0.002 mM peptide, pH 7.5, 32 °C, 60 min
T2 construct: kinase domain 389-659; His-PreScission (with or without Avi) construct, Sf9 cells
From the text: kinase inhibition, Caliper mobility shift on BTK kinase domain (389-659) | weaker affinity for BTK of the DBt-6 and DBt-8 was additionally corroborated by enzymatic inhibition

BTK-NanoLuc = target: T3, BTK-NanoLuc (Homo sapiens, UniProt Q06187); test: NanoBRET tracer displacement; assay type: cell-based; details: digitonin-permeabilized cells, 0.5 µM Tracer-05, 2 h; ATP site
T3 construct: full-length BTK fused to NanoLuc (pLenti6 BTK-Nanoluc), transiently expressed in HEK293-A cells

[3] = target: T1, DCAF1(1073-1399)_E1398S (WDR domain, Avi/His-tagged); test: fluorescence polarization; assay type: binding

T1 sequence (Q9Y4B6 1073-1399 E1398S): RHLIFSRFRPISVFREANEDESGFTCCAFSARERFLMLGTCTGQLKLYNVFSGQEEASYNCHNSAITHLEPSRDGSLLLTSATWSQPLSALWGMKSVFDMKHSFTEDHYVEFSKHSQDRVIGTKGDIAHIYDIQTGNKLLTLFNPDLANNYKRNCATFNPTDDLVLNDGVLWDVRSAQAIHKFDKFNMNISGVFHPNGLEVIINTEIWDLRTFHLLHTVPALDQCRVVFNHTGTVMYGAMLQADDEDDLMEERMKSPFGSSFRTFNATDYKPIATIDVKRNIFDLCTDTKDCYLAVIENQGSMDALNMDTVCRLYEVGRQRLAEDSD
T2 sequence (Q06187 389-659): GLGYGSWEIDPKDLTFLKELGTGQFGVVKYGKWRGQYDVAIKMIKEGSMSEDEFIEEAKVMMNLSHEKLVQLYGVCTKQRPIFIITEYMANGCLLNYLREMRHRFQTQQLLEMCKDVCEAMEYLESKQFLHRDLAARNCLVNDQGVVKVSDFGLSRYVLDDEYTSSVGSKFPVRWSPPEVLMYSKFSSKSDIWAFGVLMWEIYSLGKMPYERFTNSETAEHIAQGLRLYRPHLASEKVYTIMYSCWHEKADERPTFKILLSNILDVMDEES
T3 sequence (Q06187 2-659): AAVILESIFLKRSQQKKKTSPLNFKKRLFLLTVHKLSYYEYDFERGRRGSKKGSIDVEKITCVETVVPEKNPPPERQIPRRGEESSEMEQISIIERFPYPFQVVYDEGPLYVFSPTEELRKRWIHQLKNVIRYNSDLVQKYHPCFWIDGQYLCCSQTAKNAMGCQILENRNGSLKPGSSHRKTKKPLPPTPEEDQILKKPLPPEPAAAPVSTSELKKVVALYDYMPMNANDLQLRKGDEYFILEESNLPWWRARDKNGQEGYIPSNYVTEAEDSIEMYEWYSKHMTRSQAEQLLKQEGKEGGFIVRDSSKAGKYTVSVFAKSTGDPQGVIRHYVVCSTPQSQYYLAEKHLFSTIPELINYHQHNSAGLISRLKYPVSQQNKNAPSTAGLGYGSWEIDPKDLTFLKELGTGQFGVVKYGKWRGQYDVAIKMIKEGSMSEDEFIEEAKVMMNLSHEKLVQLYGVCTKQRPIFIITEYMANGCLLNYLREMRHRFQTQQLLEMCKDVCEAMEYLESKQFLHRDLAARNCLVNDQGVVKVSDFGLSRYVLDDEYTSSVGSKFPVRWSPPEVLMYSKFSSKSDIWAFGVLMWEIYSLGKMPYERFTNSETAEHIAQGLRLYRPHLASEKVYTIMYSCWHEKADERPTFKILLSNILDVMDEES

IC50 ([1]; read-out: IC50): 56 ± 37 nM
IC50 [2]: 510 nM
IC50 (BTK-NanoLuc): 2350 nM
Compound: Cc1c(NC(=O)c2ccc(C(C)(C)O)cc2F)cc(F)cc1-c1ncnc2[nH]c(-c3ccc(CNCCOCCOCC(=O)N4CCCC(C(=O)N5CCN(c6ccc7c(NCCN)nc(C8(c9ccc(Cl)cc9)CCCCC8)nc7c6)CC5)C4)cc3)cc12 (centres unmarked) [DBt-6]

Kd [3]: 69 ± 6 nM
Compound: Cc1cc(C)n2c1C=C1C=CC(CCC(=O)N3CCN(c4ccc5c(NCCN)nc(C(C)(C)c6ccc(Cl)cc6)nc5c4)CC3)=[N+]1[B-]2(F)F [bodipy labelled ligand]

Compound: CC(=O)N1CCN(c2ccc3c(NCCN)nc(C4(c5ccc(Cl)cc5)CCCCC4)nc3c2)CC1 [compound 13, VHF543]
IC50 [1]: IC50 determined by DCAF1 TR-FRET for selected DCAF1 binders
